Laboratory results taken from patent publication US7112589B2, “Cysteine protease inhibitors with 2-cyano-4-amino-pyrimidine structure and cathepsin k inhibitory activity for the treatment of inflammations and other diseases” (Novartis AG, priority 2001, dated 2006).

Biological target: T1, recombinant human cathepsin K (Homo sapiens, UniProt P43235)
T1 sequence (P43235 115-329): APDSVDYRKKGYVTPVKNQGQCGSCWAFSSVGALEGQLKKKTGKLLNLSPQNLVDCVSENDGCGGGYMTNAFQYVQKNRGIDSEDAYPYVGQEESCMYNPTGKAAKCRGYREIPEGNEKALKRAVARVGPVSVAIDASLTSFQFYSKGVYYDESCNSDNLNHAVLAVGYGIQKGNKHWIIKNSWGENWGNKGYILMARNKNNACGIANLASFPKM
Assay: in vitro inhibition of recombinant human cathepsin K (Z-Phe-Arg-AMCA fluorescence assay)
Assay type: biochemical
Details: recombinant human cathepsin K 0.16 nM, Z-Phe-Arg-AMCA substrate, pH 7.0, 30 min preincubation, 30 min incubation; read-out: IC50s for inhibition of human cathepsin K
Description: The in vitro assay is carried out as follows:
The assay is performed in 96 well microtiter plates at ambient temperature using recombinant human cathepsin K. Inhibition of cathepsin K is assayed at a constant enzyme (0.16 nM) and substrate concentration ([…] Z-Phe-Arg-AMCA-Peptide Institute Inc. Osaka, Japan) in 100 mM sodium phosphate buffer, pH 7.0, containing 2 mM dithiothreitol, 20 mM Tween 80 and 1 mM EDTA. Cathepsin K is preincubated with the inhibitors for 30 min, and the reaction is initiated by the addition of substrate. After 30 min incubation the reaction is stopped by the addition of E-64 (2 mM), and fluorescence intensity is read on a multi-well plate reader at excitation and emission wavelengths of 360 and 460 nm, respectively.

SMILES	IC50
CN1CCN(Cc2ccc(C(=O)NCc3cnc(C#N)nc3NCC(C)(C)C)cc2)CC1 [Example I-22, N-[2-Cyano-4-(2,2-dimethyl-propylamino)-pyrimidin-5-ylmethyl]-4-(4-methyl-piperazin-1-ylmethyl)-benzamide]	3 nM
COCCN1CCC(Cc2ccc(C(=O)NCc3cnc(C#N)nc3NCC(C)(C)C)cc2)CC1 [Example I-23, N-[2-Cyano-4-(2,2-dimethyl-propylamino)-pyrimidin-5-ylmethyl]-4-[1-(2-methoxy-ethyl)-piperidin-4-ylmethyl]-benzamide]	1.5 nM
